# Measured values: ChEMBL document CHEMBL5303765, “Data for DCP probe BAY-7081” (2023)
# Columns and labels:
# [1] = target: Sigma non-opioid intracellular receptor 1 (Homo sapiens) (UniProt Q99720); settings: Compound concentration 10.0 uM
# [2] = target: 5-hydroxytryptamine receptor 2A (Homo sapiens) (UniProt P28223); settings: Compound concentration 10.0 uM
# [3] = target: Histamine H4 receptor (Homo sapiens) (UniProt Q9H3N8); settings: Compound concentration 10.0 uM
# [4] = target: Calcium/calmodulin-dependent protein kinase type 1D (Homo sapiens) (UniProt Q8IU85); experiment: CAMK1D SGC Tm panel (DSF); settings: for ΔTm: Compound concentration 10.0 uM
# Sequence of Calcium/calmodulin-dependent protein kinase type 1D (Homo sapiens) (Q8IU85 whole entry, looked up): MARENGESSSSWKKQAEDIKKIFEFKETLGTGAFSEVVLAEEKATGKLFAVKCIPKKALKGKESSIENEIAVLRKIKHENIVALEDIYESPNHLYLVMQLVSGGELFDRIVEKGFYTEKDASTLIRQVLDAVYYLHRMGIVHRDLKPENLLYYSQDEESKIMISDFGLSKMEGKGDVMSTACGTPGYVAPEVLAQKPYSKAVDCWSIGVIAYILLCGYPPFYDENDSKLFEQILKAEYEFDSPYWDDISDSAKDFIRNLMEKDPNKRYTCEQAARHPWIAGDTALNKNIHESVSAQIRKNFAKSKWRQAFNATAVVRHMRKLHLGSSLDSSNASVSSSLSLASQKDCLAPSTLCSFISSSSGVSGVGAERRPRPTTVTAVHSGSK
# [5] = target: Sodium-dependent noradrenaline transporter (Homo sapiens) (UniProt P23975); settings: Compound concentration 10.0 uM
# Sequence of Sodium-dependent noradrenaline transporter (Homo sapiens) (P23975 whole entry): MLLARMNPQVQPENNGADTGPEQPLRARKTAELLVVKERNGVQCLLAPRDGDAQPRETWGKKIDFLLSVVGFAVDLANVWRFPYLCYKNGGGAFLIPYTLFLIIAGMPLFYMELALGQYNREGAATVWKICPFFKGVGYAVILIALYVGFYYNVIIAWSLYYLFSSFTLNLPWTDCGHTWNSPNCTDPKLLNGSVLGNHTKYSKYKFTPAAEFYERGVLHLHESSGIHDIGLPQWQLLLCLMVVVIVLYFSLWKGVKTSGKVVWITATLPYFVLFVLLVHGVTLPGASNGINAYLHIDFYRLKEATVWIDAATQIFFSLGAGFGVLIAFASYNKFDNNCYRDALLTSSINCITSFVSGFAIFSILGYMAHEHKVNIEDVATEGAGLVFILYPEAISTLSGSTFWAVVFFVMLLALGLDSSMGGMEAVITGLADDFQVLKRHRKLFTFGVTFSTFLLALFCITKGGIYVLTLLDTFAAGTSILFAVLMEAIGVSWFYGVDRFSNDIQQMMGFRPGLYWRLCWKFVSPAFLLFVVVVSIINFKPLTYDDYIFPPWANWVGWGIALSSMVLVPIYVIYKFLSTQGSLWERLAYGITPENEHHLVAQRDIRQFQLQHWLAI
# [6] = target: T1, Dual specificity tyrosine-phosphorylation-regulated kinase 2 (Homo sapiens) (UniProt Q92630); experiment: DYRK2 SGC Tm panel (DSF); settings: for ΔTm: Compound concentration 10.0 uM
# T1 sequence (whole entry): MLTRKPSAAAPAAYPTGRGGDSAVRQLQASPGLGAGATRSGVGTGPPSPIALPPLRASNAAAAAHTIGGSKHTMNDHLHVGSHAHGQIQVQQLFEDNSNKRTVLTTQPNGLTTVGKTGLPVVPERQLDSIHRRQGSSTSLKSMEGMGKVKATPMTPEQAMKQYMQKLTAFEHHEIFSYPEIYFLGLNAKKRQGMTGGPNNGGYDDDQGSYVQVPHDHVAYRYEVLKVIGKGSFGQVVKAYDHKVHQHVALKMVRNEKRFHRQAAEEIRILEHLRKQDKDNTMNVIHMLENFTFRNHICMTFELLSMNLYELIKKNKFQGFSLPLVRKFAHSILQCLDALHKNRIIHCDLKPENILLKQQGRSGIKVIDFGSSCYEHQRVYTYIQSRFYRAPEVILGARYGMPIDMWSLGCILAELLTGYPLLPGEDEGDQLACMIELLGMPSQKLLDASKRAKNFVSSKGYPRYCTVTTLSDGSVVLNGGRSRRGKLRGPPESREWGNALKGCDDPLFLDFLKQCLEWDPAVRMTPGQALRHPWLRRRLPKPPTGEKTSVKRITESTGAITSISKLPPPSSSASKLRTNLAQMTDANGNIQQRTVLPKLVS
# [7] = target: Dual specificity tyrosine-phosphorylation-regulated kinase 1A (Homo sapiens) (UniProt Q13627); experiment: DYRK1A SGC Tm panel (DSF); settings: for ΔTm: Compound concentration 10.0 uM
# [8] = target: T2, Phosphorylase b kinase gamma catalytic chain, liver/testis isoform (Homo sapiens) (UniProt P15735); experiment: PHKG2 SGC Tm panel (DSF); settings: for ΔTm: Compound concentration 10.0 uM
# T2 sequence (whole entry): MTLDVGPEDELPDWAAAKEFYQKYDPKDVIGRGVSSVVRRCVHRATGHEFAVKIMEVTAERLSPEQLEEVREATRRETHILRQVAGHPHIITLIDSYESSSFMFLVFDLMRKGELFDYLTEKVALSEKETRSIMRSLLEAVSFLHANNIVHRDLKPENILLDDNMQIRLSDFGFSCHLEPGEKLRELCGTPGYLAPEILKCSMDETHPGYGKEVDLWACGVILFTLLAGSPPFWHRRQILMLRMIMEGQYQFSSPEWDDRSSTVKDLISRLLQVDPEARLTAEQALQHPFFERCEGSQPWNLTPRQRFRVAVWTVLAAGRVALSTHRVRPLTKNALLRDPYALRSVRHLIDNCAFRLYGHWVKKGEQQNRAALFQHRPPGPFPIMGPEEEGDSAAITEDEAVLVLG
# [9] = target: Serine/threonine-protein kinase Nek7 (Homo sapiens) (UniProt Q8TDX7); experiment: NEK7 SGC Tm panel (DSF); settings: for ΔTm: Compound concentration 10.0 uM
# Sequence of Serine/threonine-protein kinase Nek7 (Homo sapiens) (Q8TDX7 whole entry, looked up): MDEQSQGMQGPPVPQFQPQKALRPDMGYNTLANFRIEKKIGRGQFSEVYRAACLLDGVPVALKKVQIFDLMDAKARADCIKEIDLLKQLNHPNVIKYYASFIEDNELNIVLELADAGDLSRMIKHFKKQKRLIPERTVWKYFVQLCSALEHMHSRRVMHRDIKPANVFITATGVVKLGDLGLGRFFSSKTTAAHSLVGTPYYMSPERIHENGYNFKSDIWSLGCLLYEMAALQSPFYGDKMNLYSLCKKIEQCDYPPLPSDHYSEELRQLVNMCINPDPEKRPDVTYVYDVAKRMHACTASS
# [10] = target: T3, Aurora kinase A (Homo sapiens) (UniProt O14965); experiment: STK6 SGC Tm panel (DSF); settings: for ΔTm: Compound concentration 10.0 uM
# T3 sequence (whole entry): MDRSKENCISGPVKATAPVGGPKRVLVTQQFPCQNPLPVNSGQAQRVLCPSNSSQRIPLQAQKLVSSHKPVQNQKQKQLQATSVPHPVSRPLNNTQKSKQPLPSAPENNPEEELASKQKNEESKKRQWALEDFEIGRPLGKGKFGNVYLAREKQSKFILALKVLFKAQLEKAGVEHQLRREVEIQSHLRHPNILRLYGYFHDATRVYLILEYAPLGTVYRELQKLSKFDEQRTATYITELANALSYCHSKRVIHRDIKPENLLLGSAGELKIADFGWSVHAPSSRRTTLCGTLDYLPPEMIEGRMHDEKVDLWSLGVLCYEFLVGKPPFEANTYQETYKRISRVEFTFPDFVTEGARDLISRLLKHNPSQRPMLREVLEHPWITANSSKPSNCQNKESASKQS
# [11] = target: T4, D(4) dopamine receptor (Homo sapiens) (UniProt P21917); settings: Compound concentration 10.0 uM
# T4 sequence (whole entry): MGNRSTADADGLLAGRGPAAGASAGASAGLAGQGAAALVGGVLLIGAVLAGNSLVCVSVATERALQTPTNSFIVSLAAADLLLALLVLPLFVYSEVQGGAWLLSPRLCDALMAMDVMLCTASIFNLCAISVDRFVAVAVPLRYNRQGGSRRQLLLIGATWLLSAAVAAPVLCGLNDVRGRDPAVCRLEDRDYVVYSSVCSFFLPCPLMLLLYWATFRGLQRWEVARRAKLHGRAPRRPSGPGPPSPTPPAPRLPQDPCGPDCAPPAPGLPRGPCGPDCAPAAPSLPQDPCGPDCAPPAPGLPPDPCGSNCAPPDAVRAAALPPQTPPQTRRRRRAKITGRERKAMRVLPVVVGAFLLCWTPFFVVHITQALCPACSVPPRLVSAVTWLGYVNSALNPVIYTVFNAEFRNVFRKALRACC
# [12] = target: Serine/threonine-protein kinase MRCK alpha (Homo sapiens) (UniProt Q5VT25); experiment: CDC42BPA SGC Tm panel (DSF); settings: for ΔTm: Compound concentration 10.0 uM
# Sequence of Serine/threonine-protein kinase MRCK alpha (Homo sapiens) (Q5VT25 whole entry, looked up): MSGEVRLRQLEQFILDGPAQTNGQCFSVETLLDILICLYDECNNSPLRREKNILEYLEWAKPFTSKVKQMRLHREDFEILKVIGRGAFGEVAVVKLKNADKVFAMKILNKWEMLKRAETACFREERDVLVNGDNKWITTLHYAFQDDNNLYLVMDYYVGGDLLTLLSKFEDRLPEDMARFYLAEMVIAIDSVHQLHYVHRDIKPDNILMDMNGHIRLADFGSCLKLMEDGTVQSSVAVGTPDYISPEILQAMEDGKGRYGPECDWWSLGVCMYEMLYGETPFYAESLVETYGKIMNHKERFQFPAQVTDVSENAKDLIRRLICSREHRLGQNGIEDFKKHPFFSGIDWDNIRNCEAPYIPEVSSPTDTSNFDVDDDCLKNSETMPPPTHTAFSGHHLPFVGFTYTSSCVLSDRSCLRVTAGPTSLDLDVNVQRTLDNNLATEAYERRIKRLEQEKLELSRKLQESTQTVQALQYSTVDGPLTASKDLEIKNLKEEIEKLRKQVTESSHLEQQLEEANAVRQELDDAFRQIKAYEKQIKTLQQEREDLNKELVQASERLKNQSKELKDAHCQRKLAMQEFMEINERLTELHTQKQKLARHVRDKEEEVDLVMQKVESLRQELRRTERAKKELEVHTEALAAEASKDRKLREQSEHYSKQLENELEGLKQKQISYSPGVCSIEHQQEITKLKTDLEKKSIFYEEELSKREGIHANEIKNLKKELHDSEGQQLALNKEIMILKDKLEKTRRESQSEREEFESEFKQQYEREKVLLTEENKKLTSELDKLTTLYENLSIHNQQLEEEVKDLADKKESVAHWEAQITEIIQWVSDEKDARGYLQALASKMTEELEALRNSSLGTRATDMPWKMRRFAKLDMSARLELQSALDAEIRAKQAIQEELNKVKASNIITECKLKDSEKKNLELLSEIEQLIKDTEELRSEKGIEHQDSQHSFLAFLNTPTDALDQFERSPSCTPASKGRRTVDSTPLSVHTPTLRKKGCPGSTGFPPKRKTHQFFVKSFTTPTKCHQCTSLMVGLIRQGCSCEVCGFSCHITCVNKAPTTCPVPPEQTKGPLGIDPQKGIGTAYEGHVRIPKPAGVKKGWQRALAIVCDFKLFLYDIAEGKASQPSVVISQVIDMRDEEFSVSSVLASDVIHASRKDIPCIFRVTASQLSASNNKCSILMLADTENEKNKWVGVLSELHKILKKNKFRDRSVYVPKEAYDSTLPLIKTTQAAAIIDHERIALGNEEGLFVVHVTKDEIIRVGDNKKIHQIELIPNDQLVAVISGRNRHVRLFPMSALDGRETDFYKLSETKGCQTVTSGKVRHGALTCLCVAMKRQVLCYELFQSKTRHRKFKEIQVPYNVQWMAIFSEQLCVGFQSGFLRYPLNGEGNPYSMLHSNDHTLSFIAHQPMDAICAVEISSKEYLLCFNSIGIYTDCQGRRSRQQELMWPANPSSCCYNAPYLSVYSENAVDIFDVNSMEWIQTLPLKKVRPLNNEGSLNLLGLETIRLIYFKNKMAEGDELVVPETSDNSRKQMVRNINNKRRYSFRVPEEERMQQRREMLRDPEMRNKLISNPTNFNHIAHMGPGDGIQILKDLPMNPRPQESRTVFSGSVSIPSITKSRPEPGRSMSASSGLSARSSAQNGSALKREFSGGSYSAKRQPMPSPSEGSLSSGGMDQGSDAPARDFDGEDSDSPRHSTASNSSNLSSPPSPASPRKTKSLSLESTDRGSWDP
# [13] = target: T5, Serine/threonine-protein kinase 17B (Homo sapiens) (UniProt O94768); experiment: STK17B SGC Tm panel (DSF); settings: for ΔTm: Compound concentration 10.0 uM
# T5 sequence (whole entry): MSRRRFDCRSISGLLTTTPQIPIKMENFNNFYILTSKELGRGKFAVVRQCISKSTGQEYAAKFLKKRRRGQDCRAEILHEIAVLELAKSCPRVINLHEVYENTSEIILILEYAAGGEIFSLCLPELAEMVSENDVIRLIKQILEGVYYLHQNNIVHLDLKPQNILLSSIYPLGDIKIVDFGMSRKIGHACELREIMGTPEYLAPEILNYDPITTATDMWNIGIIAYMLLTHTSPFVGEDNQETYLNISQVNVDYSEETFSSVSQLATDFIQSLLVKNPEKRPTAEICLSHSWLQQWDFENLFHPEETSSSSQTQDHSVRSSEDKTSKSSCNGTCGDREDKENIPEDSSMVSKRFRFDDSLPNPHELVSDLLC
# Sequence of 5-hydroxytryptamine receptor 2A (Homo sapiens) (P28223 whole entry): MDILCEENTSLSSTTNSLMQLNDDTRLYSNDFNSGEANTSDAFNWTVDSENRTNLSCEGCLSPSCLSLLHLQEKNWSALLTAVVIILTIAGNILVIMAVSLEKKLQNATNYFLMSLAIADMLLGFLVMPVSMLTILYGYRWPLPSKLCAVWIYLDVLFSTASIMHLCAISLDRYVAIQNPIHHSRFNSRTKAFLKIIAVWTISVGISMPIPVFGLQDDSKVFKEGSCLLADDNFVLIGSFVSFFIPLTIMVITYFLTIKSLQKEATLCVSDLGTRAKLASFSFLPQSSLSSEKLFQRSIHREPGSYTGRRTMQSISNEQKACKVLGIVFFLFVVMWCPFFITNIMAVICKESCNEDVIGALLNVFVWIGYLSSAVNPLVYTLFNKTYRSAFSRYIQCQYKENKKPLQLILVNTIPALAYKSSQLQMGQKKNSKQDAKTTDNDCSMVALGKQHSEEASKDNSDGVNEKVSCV
# Sequence of Histamine H4 receptor (Homo sapiens) (Q9H3N8 whole entry): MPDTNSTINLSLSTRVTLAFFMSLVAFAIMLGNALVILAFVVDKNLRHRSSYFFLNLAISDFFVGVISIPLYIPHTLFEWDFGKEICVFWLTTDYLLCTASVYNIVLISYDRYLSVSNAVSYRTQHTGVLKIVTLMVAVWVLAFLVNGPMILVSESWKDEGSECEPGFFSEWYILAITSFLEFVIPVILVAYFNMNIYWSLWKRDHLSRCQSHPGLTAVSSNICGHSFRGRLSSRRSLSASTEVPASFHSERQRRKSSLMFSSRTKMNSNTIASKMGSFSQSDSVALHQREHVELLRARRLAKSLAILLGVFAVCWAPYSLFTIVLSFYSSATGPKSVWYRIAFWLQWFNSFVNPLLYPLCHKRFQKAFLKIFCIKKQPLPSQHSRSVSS
# Sequence of Sigma non-opioid intracellular receptor 1 (Homo sapiens) (Q99720 whole entry): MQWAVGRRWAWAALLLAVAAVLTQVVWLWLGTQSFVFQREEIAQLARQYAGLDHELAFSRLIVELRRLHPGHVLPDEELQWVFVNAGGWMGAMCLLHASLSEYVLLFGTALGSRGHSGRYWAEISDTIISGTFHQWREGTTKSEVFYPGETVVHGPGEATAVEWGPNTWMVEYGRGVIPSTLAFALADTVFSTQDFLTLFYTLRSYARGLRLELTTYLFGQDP
Structure (SMILES),inhibition [1] [%],inhibition [2] [%],inhibition [3] [%],delta Tm Staurosporine positive control [4],ΔTm [4],inhibition [5] [%],delta Tm Staurosporine positive control [6],ΔTm [6],delta Tm Staurosporine positive control [7],ΔTm [7],delta Tm Staurosporine positive control [8],ΔTm [8],delta Tm Staurosporine positive control [9],ΔTm [9],delta Tm Staurosporine positive control [10],ΔTm [10],inhibition [11] [%],delta Tm Staurosporine positive control [12],ΔTm [12],delta Tm Staurosporine positive control [13],other results
CCC[C@H]1CNCc2c1[nH]c(=O)c(C#N)c2N1CCC2(CC1)CC2,18.1,-6.26,14.2,10.9,-0.751,-3.72,5.55,-0.198,9.05,-0.256,21.5,-0.755,-0.489,-0.134,20.5,0.00646,15.9,3.2,0.0908,10.6,ΔTm [13]: -0.858
CCC[C@@H]1CNCc2c1[nH]c(=O)c(C#N)c2N1CCC2(CC1)CC2,13.2,-4.86,-8.1,10.9,-0.415,-7.72,5.55,-0.189,9.05,0.743,21.5,-0.827,-0.489,-0.956,20.5,-0.0175,18.8,3.2,0.159,10.6,ΔTm [13]: -0.79
